In brackets after ≈: the same amount, converted by molar mass.
Tested on: Mycobacterium tuberculosis
Experiment: Antituberculosis activity against Mycobacterium tuberculosis H37Rv
Assay type: functional

Row | Compound | MIC | IC90
1 | C[C@@H]1COC2(CCN(c3nc(=O)c4cc(C(F)(F)F)cc([N+](=O)[O-])c4s3)CC2)O1 | 0.001 µg/mL (≈ 0.00232 µM) | –
2 | CC1(CNC(=O)Nc2ccc(C(F)(F)F)cc2)CC2CCC1C2 (stereo not given) | – | < 0.1 µg/mL
3 | COC(=O)COc1ccc(NC(=O)COc2ccc(C)cc2C)cc1 | – | < 0.1 µg/mL
4 | COc1ccc(CCNC(=O)CCc2ncc(C(C)(C)C)s2)cc1 | – | < 0.1 µg/mL
5 | Clc1ccc(Nc2nc(-c3ccccn3)cs2)nc1 | – | < 0.1 µg/mL
6 | O=C(CC12CC3CC(CC(C3)C1)C2)Nc1ccc2ccccc2c1 | – | < 0.1 µg/mL
7 | O=C(Nc1ccc(F)c(Cl)c1)c1ccc([N+](=O)[O-])o1 | – | < 0.1 µg/mL
8 | CSc1ncc(C(=O)Nc2cccc(C(F)(F)F)c2)cn1 | – | < 0.1 µg/mL
9 | Cc1cccnc1Nc1nc(-c2ccccn2)cs1 | – | < 0.1 µg/mL
10 | CC(C)(C)c1ccc(C(=O)Nc2nc3ccccc3[nH]2)cc1 | – | < 0.1 µg/mL
11 | Cc1c(Cl)cccc1NC(=O)OC(C)(OC1CCCCC1)C(=O)O (stereo not given) | – | < 0.1 µg/mL
12 | C[C@H]1COC2(CCN(c3nc(=O)c4cc(C(F)(F)F)cc([N+](=O)[O-])c4s3)CC2)O1 [BTZ-043] | 0.001 µg/mL (≈ 0.00232 µM) | –
13 | O=S1(=O)C=C(Sc2nc3ccccc3s2)c2ccccc21 | – | < 0.1 µg/mL
14 | COC(=O)c1nc(N)sc1Cc1ccccc1 | 0.06 µg/mL (≈ 0.242 µM) | –
15 | CSc1ncnc2c1ncn2CC(=O)Nc1ccc(C)c(C)c1 | – | < 0.1 µg/mL
16 | O=C(Nc1ccc(F)c(Cl)c1)C12CC3CC(CC(C3)C1)C2 | – | < 0.1 µg/mL
17 | Cc1cc([N+](=O)[O-])ccc1NC(=O)c1ccc(-c2ccccc2)cc1 | – | < 0.1 µg/mL
18 | CC(C)(C)c1cc(Cl)c(O)c(NC(=S)NC(=O)c2ccc3ccccc3c2)c1 | – | < 0.1 µg/mL
19 | O=c1c2ccccc2nc(/C=C/c2ccc([N+](=O)[O-])o2)n1CCCO | – | < 0.1 µg/mL
20 | Cc1cccc(Nc2nc(-c3ccccn3)cs2)n1 | – | < 0.1 µg/mL
21 | Cc1ccc(C(=O)Nc2ccc([N+](=O)[O-])cc2C)cc1I | – | < 0.1 µg/mL
22 | FC(F)(F)c1ccccc1Nc1nc(-c2ccccn2)cs1 | – | < 0.1 µg/mL
23 | Cc1ccc2oc(-c3cc(NC(=O)Cc4ccccc4)ccc3Cl)nc2c1 | – | < 0.1 µg/mL
24 | Cc1sc(N)nc1C(=O)O | 0.06 µg/mL (≈ 0.379 µM) | –
25 | O=C(Nc1nc(-c2ccccc2)c(-c2ccccc2)o1)c1ccc(F)cc1 | – | < 0.1 µg/mL
